This note sets out measurements from US20240368145A1, “METHODS FOR TREATING CANCER” (IMMUNIC AG, priority 2021, published 2024).

SMILES strings stand for the structures.

One assay concerns KLK2 mRNA. Nature of the assay: Expression of AR target genes (qRT-PCR) in 22Rv1: KLK2. The note with it: 22Rv1, 1 μM. The class given is cell-based. The method, then: (§1) The prostate cancer cell line 22Rv1 was treated for 48h with 1 μM Example compound 1, 1/1, 2/1, 2/2, 2/3, 2/4, 2/5, 2/6, 2/7, 2/8, 2/9 and 2/10 and reference compounds SR2211 and XY018. RNA was extracted using the RNA isolation kit XS (Macherey-Nagel) and following the manufacture's manual. RNA quantity was measured with the Nanodrop before reverse transcription using Superscript II (Invitrogen #100004925). For the quantitative real-time PCR with SYBR-Green (Qiagen #204074), the following primers were used:
(§2) qRT-PCR was performed using SYBR-Green (Qiagen #204074) reagents in a PCR cycler (Gorbett Research) Rotor Gene RG3000 with the following program: denaturation for 5′ at 95° C.; 40 cycles of 20″ at 95° C. and 15″ at 60° C.″ and at the end of the last cycle, the melting temperature of the products was determined by gradually increasing from 60° C. to 99° C. CT values from all samples were normalized to reference (housekeeping) genes using the mean CT value of the GAPDH and YWHAZ (reference genes). Next the values are put relative to the untreated control (vehicle/DMSO).

Another assay relates to NKX3.1 mRNA. Nature of the assay: Expression of AR target genes (qRT-PCR) in 22Rv1: NKX3.1. The note with it: Homo sapiens; 22Rv1, 1 μM, 48h; relative to vehicle control (DMSO). The class given is cell-based. The protocol: as §1, §2
Another assay has as its system AML cell line THP-1. As to the kind of experiment: CellTiter-Blue proliferation assay, THP-1. The class given is cell-based. The note with it: Homo sapiens, geometric mean relative IC50, 72 hours, read-out: IC50 range for cell line THP-1. The method, then: (§3) Aim of this study was to evaluate compounds of Example 1, 1/1, 2/2, 2/5 and 2/6 in a proliferation assays. The 5 test compounds were tested in a CellTiter-Blue® based proliferation assay in three AML cell lines (HL-60, THP-1 and MOLM-13). The compounds were tested at 10 concentrations in half-log increments (highest concentration 30 μM or 100 μM) in duplicates. The incubation period with the applied compounds was fixed to 72 hours.

Assay [1] deals with full length AR (AR-FL) mRNA. Nature of the assay: Androgen receptor RNA level expression (qRT-PCR) in 22Rv1: AR-FL. The format is cell-based. The note with it: 22Rv1, 1 μM, 48 h. The method, then: (§4) The prostate cancer cell line 22Rv1 was treated for 48 h with 1 μM Example compound 1, 1/1, 1/2, 2/1, 2/2, 2/3, 2/4, 2/5, 2/6, 2/7, 2/8, 2/9 and 2/10 and the reference compounds SR2211 and XY018 (Nat. Med. 2016; 22:488). RNA was extracted using the RNA isolation kit XS (Macherey-Nagel) and following the manufacture's manual. RNA quantity was measured with the Nanodrop before reverse transcription using Superscript II (Invitrogen #100004925). For the quantitative real-time PCR with SYBR-Green (Qiagen #204074), the following primers were used: AR forward-ACATCAAGGAACTCGATCGTATCATTGC and reverse-TTGGGCACTTGCACAGAGAT, AR-V7: forward-CCATCTTGTCGTCTTCGGAAATGTTATGAAGC and reverse-TTTGAATGAGGCAAGTCAGCCTTTCTT. The qRT-PCR proceeded as follows: denaturation for 5 min 95° C.; 40 cycles of “20 sec at 95° C. and 15 sec at 60° C.” and at the end of the last cycle, the melting temperature of the products was determined by gradually increasing it from 60° C. to 99° C. CT values from all samples were normalized to two different reference (housekeeping) genes using the mean CT value of the GAPDH and YWHAZ (reference genes). Next the values are normalized to the untreated control (vehicle/DMSO).

Another assay relates to IL-17A. As to the kind of experiment: Cytokine assay, human PBMC stimulated with PHA: IL-17A. The class given is cell-based. The settings on record: PHA-activated, 48 hours, read-out: IL-17A inhibition (IC50 range). The protocol: (§5) Peripheral blood mononuclear cells (PBMC) from healthy human donors were purified using Accuspin™ System-Histopaque-1077 (Sigma) according to the protocol recommended by the manufacturer. Purified PBMC were then washed twice with phosphate-buffered saline (PBS) and resuspended in RPMI1640 culture medium supplemented with 10% dialyzed heat inactivated fetal calf serum, 1.5 mM L-glutamine, 100 U penicillin/mL and […] streptomycin/mL (all from PAN Biotech, Aidenbach, Germany). For stimulation, PBMC were seeded at 1×10^5 cells/well, activated with 2 gg/mL phytohaemagglutinin (PHA, Sigma) and incubated with the test compounds for 48 hours. IL-17A, IL-17F and INFγ were then determined in the culture supernatant using a Luminex BioPlex system, following the manufacturer's instructions (BioRad, Munich, Germany). To determine the IC50, compounds were titrated semilogarithmically.
(§6) Cytokines were determined in the aforementioned culture supernatant using the following methods: IL-17A was measured using the human homodimer IL-17A ELISA Ready Set Go Kit from cBioscience (Frankfurt, Germany); IL-17F using the human IL-17F ELI-Pair from Holzel Diagnostica GmbH (K51n, Germany); and IFNγ using the OptEIA human IFN-g ELISA from BD Bioscience (Heidelberg, Germany), all following the manufacturer's instructions.

The subject of a further assay is FKBP5 mRNA. Nature of the assay: Expression of AR target genes (qRT-PCR) in 22Rv1: FKBP5. The class given is cell-based. The settings on record: Homo sapiens; 22Rv1, 1 μM, 48h; relative to vehicle control (DMSO). The method, then: as §1, §2
The test system of the next assay is IL-17F. As to the kind of experiment: Cytokine assay, human PBMC stimulated with PHA: IL-17F. The class given is cell-based. The note with it: PHA-activated, 48 hours, read-out: IL-17F inhibition (IC50 range). The method, then: as §5, §6
For the next assay, the system named is AML cell line HL-60. As to the kind of experiment: CellTiter-Blue proliferation assay, HL-60. The settings on record: Homo sapiens, geometric mean relative IC50, 72 hours, read-out: IC50 range for cell line HL-60. The class given is cell-based. The method, then:
as §3

For another assay, the system named is AR-V7 mRNA. As to the kind of experiment: Androgen receptor RNA level expression (qRT-PCR) in 22Rv1: AR-V7. The format is cell-based. The note with it: 22Rv1, 1 μM, 48 h. The method, then:
as §4

The next assay deals with AML cell line MOLM-13. As to the kind of experiment: CellTiter-Blue proliferation assay, MOLM-13. The format is cell-based. The note with it: Homo sapiens, geometric mean relative IC50, 72 hours, read-out: IC50 range for cell line MOLM-13. The method, then:
as §3

The test system of the next assay is IFNγ. Nature of the assay: Cytokine assay, human PBMC stimulated with PHA: IFNγ. The note with it: PHA-activated, 48 hours, read-out: IFNγ inhibition (IC50 range). The class given is cell-based. The method, then: as §5, §6
The test system of the next assay is CAMKK2 mRNA. As to the kind of experiment: Expression of AR target genes (qRT-PCR) in 22Rv1: CAMKK2. The format is cell-based. The settings on record: 22Rv1, 1 μM, 48h; relative to vehicle control (DMSO). The protocol:
as §1, §2

In a further assay the test system is AR-V7 protein. Nature of the assay: Androgen receptor protein expression (western blot) in 22Rv1: AR-V7. The class given is cell-based, human. The note with it: 22Rv1, 6 μM, 48 h; western blot quantification. The protocol: (§7) After 48 h, cell were lysed using cell extraction buffer (Life Technologies #FNN0011) for western blot. […] The membrane is then incubation for 1 hour in blocking buffer (5% milk in 20 mM Tris, 150 mM NaCl, pH 7.5, 0.05% Tween 20 [TBS-T]). After this incubation, the primary antibody is added and incubated overnight at 4° C. After washing, the membrane was incubated with the secondary antibody for 1 h. Visualization of the bands was performed using the femto maximum sensitivity substrate reagent and the luminescence signal recorded with the Fusion FX7 (Vilber). For protein quantification, InageJ was used.

The subject of a further assay is AR-FL protein. Nature of the assay: Androgen receptor protein expression (western blot) in 22Rv1: AR-FL. The settings on record: 22Rv1, 6 μM, 48 h; western blot quantification. The class given is cell-based, human. The protocol: as §7
The mark [2] stands for this setting: Homo sapiens, normalized to untreated control (vehicle/DMSO).
Setting [3] is: 48h, relative to vehicle control (DMSO).
[4] abbreviates: normalized to untreated control (vehicle/DMSO).

Turning to `COC(=O)c1c(-c2c(F)cccc2Cl)noc1-c1cnn([C@H]2C[C@@](C)(O)C2)c1C(F)(F)F` [Example 2/2], the “KLK2 mRNA level expression” value in the assay on KLK2 mRNA (48 h) is reported as “strong inhibition”. Besides, the mrna remaining at 1 µM in the assay with KLK2 mRNA (Homo sapiens, 48h, relative to vehicle control (DMSO)) was 34.1%; with NKX3.1 mRNA, 25.5%; in assay [1] (setting [2]), 38%; in the assay on FKBP5 mRNA, 24.6%; in the assay on AR-V7 mRNA (setting [2]) it was 19.9%. Also, the IC50 in the assay with AML cell line THP-1 is 0.01 to 0.1 µM; in the assay on IL-17A, below 0.025 µM; in the assay with IL-17F, below 0.025 µM; in the assay on AML cell line HL-60 it was below 0.01 µM; with AML cell line MOLM-13 it was below 0.01 µM; in the assay with IFNγ it was below 0.025 µM. In addition, the “full length AR (AR-FL) mRNA expression” value in [1] is recorded as “strong reduction”. Further, in the assay with AR-V7 mRNA, the “AR-V7 mRNA expression” value is “strong reduction”.
Consider `OC(c1ccc(-c2ccc(CN3CCN(Cc4ccncc4)CC3)cc2)c(F)c1)(C(F)(F)F)C(F)(F)F` [SR2211, reference compound], for which the “KLK2 mRNA expression” value in the assay with KLK2 mRNA (setting [3]) is 1.284. Besides, the “CAMKK2 mRNA expression” value in the assay on CAMKK2 mRNA stood at 1.009. Besides, the “AR-FL mRNA expression” value in assay [1] (setting [4]) was determined as 1.058. Further, the AR-V7 protein level in the assay with AR-V7 protein is 0.728. In the assay on AR-FL protein, this molecule registered an AR-FL protein level of 0.675. Besides, the “AR-V7 mRNA expression” value in the assay with AR-V7 mRNA (setting [4]) is given as 1.059.
As to `O=C(Cc1ccccc1[N+](=O)[O-])Nc1ccc(-c2ccc(C(O)(C(F)(F)F)C(F)(F)F)cc2F)cc1` [XY018, reference compound], the “KLK2 mRNA expression” value in the assay on KLK2 mRNA (setting [3]) amounted to 0.831. Moreover, the “CAMKK2 mRNA expression” value in the assay on CAMKK2 mRNA came out at 0.959. The “AR-FL mRNA expression” value in [1] (setting [4]) is on record as 1.111. The molecule further had an AR-V7 protein level with AR-V7 protein of 0.653. In the assay with AR-FL protein, this molecule registered an AR-FL protein level of 0.588. In addition, in the assay on AR-V7 mRNA (setting [4]), the “AR-V7 mRNA expression” value is 1.237.
